The structures appear in SMILES notation.

Test [1] is described as follows: Effects of CNT inhibitor on plasma uric acid level (purine load test in rats). Format: in vivo. As to conditions: Male SD-IGS rats, oxonic acid 100 mg/kg s.c., purine mix 50 mg/kg and test compound 50 mg/kg orally, blood after 1 hour; control group = 100%. The procedure: Male SD-IGS rats (5 weeks old) which were fasted overnight, were subcutaneously treated with oxonic acid (Aldrich; 100 mg/kg), and after 1 hour, purine mix (Adenosine: Inosine: Guanosine=1:1:1 (Adenosine (Sigma), Inosine (WAKO), Guanosine (ICN); 50 mg/kg) and test compounds (50 mg/kg) were orally administrated simultaneously. A control group was treated with oxonic acid and the purine mix, and a group administrated only oxonic acid represented endogenous plasma uric acid value. After 1 hour, blood was collected from the abdominal aorta under ether anesthesia, and the plasma was collected with Venoject II vacuum blood collecting tube (Terumo, VP-FH052). According to the method described in Journal of Chromatography B, Vol. 744 (2000), pp. 129-138, plasma uric acid level was measured by using HPLC method mentioned below. The difference between plasmauric acid value in each study group and endogenous plasma uric acid value was calculated on the basis of 100% in the control group.
Theophylline (10 μg) as an internal standard substance was added to 0.1 mL of plasma collected with the above method, and then the samples were deproteinized with 1 mL of methanol. After the samples were centrifuged, the methanol layers were evaporated to dryness under a stream of nitrogen. […] Plasma uric acid concentration was determined by HPLC method according to the condition described below. […]

The target of test [2] is T1, human CNT2 (Homo sapiens, UniProt O43868).
T1 construct: expressed in transfected cells; host or cells: COS-7 cells (RIKEN CELL BANK RCB0539), transient lipofection of a pCI-neo plasmid
T1 sequence (O43868 1-658 P22L/S45C/I160M): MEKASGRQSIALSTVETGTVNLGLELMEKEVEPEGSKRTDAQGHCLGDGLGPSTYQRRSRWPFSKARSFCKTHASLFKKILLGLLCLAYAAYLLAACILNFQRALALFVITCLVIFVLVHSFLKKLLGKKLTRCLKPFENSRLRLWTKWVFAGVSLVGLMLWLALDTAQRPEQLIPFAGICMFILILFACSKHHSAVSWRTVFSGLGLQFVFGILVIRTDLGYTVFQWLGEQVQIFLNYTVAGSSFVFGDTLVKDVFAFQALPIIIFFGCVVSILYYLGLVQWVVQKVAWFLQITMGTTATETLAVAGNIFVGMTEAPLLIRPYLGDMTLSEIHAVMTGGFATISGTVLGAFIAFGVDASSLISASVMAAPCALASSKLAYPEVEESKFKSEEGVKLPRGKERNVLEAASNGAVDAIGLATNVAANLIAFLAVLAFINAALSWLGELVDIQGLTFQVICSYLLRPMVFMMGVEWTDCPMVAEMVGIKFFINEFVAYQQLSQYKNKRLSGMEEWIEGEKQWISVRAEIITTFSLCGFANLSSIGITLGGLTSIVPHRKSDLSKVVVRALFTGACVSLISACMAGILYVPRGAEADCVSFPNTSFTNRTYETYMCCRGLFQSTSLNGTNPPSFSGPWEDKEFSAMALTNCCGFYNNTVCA
In words: Inhibitory activity against uptake of adenosine through human CNT2. In kind it is cell-based. As to conditions: 14C-labeled adenosine 10 μM, COS-7 cells transiently expressing human CNT2, 30 minutes at 37° C. On the procedure: Expression plasmid of human CNT2 was transfected into COS-7 cells (RIKEN CELL BANK RCB0539) by lipofection method. LIPOFECTAMINE 2000 (Invitrogen) was used as a lipofection reagent. COS-7 cells were diluted in D-MEM (Invitrogen) containing 10% fetal calf serum (Sanko Junyaku) at 5×10^5/1 mL, and seeded into collagen-coated 96-well plates (IWAKI) at 100 μL/well and cultured at 37° C. for 2 hours with 5% CO2 condition. For each well, 0.6 μL of LIPOFECTAMINE 2000 (Invitrogen) was diluted in 25 μL of OPTI-MEM (Invitrogen), and incubated for 7 minutes at room temperature (hereinafter referred to as Lipo 2000-OPTI). […]
An Uptake buffer was prepared by addition of a mixture of non-radioisotope labeled (Sigma) and ^14C-labeled (Amersham Biosciences) adenosine at the final concentration of 10 μM into a buffer, pH 7.4, containing 140 mM sodium chloride, 2 mM potassium chloride, 1 mM calcium chloride, 1 mM magnesium chloride, 10 mM HEPES 2-[4-(2-hydroxyethyl)-1-piperazinyl]ethane sulfonic acid, 5 mM tris(hydroxy-methyl)aminomethane and 5 mM glucose. […] After mixing with 150 μL of MicroScint-40 (Perkin Elmer), radioactivity was measured by means of scintillation counter (Perkin Elmer). One hundred % was set to the difference between the uptake in the control group and the basal uptake, and the uptake of adenosine at each test compound concentration was calculated. […]

`Nc1ncnc2c1nc(NCc1ccc(-c3ccccc3)c(OCCCCO)c1)n2[C@@H]1O[C@H](CO)[C@@H](O)[C@H]1O` [Example 82]: the “Percentage of increment of plasma uric acid level (%)” value in test [1] is listed as 44.1 (p < 0.05) %. Besides, in test [2], the IC50 – broadly, the concentration at which inhibition is half-maximal – is 297 nM.
